Patent publication US20070161697A1, “Hydrazide type compounds and the use thereof in pharmaceutical compositions for the treatment of cardiovascular diseases” (priority 2004, published 2007)
Structures can show the parent of a compound that is named as a salt. Where two headings read alike, the source gives them in different places.

Assays:
THP1 cells [1] = test: Inhibition of binding and accumulation of cyanine 3-marked LDLox as lipid vesicles in differentiated THP1 macrophage cells; format: cell-based; conditions: Homo sapiens, 2.5 μM
Description: The culture medium may be replaced every two days.
In the present example, the accumulation of lipid vesicles within the cell was measured using THP1 cells following fixation with paraformaldehyde in PBS medium using a solution containing a fluorescent marker of the Oil Red O type in order to visualise the vesicles. The image of the cells rich in vesicles was analysed using a microscope ecqluipped with a CCD camera and software necessary for the analysis.
The medium was replaced every 2-3 days.
The differentiated THP-1 were subsequently incubated with LDLox coupled with cyanine-3 (1.5 μg/ml) in the presence or absence of the molecule CGP02-01 (concentrations of between 10^−5M and 3.1.6 10^−10M) for 24 hours at 37° C., 5% CO2. […] Each image was analysed and quantified with the MetaMorph software (Universal Imaging).

THP1 cells [2] = test: as above; format: cell-based; conditions: 3 μg/ml oxLDL-cyanine 3, 25 hours, different concentrations, FIG. 7
Wistar rats [3] = test: Insulin in plasma, rats on dietary regimen rich in fructose; format: in vivo; conditions: 50 mg/kg oral
Description: Secondly, the activity of the compound CGP 02-01 was studied using a reference rat-fructose model. Groups of Wistar rats (n=12) were subjected for 3 weeks to a dietary regimen containing […] of fructose. […] Groups of rats subsequently received by forced feeding 50 mg/kg of the compound CGP 02-01 dissolved in a 2% tween solution prepared in methylcellulose. The blood samples for the biochemical analyses were performed after 1, 2 and 3 weeks. Independent groups of rats wee treated under the same conditions with metformin hydrochloride at a dose of 50 mg/kg. The metformin served as a reference in this metabolic syndrome model. Assay of insulin in plasma may be performed by radioimmunological assay using commercially available kits comprising specific anti-insulin antibodies of mice or rats. One may for example use the rat/mouse ELISA kits, Linco research (ref. EZRMI-13K).

Wistar rats [4] = test: Circulating triglycerides, rats on dietary regimen rich in fructose; format: in vivo; conditions: oral
Description: Secondly, the activity of the compound CGP 02-01 was studied using a reference rat-fructose model. Groups of Wistar rats (n=12) were subjected for 3 weeks to a dietary regimen containing […] of fructose. […] Groups of rats subsequently received by forced feeding 50 mg/kg of the compound CGP 02-01 dissolved in a 2% tween solution prepared in methylcellulose. The blood samples for the biochemical analyses were performed after 1, 2 and 3 weeks. Independent groups of rats wee treated under the same conditions with metformin hydrochloride at a dose of 50 mg/kg. The metformin served as a reference in this metabolic syndrome model. Assay of serum triglycerides may be performed enzymatically using the commercially available kit. One may use kits from Biomérieux for example (ref. 61.238). In summary, the triglycerides are treated with a lipase in order to generate fatty acids. In the presence of ATP, the glycerol is transformed by glycerokinase into glycerol 3 phosphate. The glycerol 3 phosphate is subsequently transformed into dihydroxyacetone in generating oxygenated water (H202) which may be detected by formation of quinoneimine in the presence of parachlorophenol, amino-4-antipyrin and peroxidase. The intensity of the quinoneimine coloration is subsequently measured at 505 nm. This coloration is proportional to the quantity of triglycerides present in the sample.

Wistar rats [5] = test: Total cholesterol in plasma, rats on dietary regimen rich in fructose; format: in vivo; conditions: 50 mg/kg oral, 3 weeks of treatment
Description: Secondly, the activity of the compound CGP 02-01 was studied using a reference rat-fructose model. Groups of Wistar rats (n=12) were subjected for 3 weeks to a dietary regimen containing […] of fructose. Under these conditions, the rats develop a metabolic syndrome comprising hyperglycaemia, hyperinsulinaemia, hypercholesterolaemia and hypertriglyceridaemia. Groups of rats subsequently received by forced feeding 50 mg/kg of the compound CGP 02-01 dissolved in a 2% tween solution prepared in methylcellulose. The blood samples for the biochemical analyses were performed after 1, 2 and 3 weeks. Independent groups of rats wee treated under the same conditions with metformin hydrochloride at a dose of 50 mg/kg. The metformin served as a reference in this metabolic syndrome model. The circulating total cholesterol may be measured by enzymatic assay using the commercially available kit. This assay may for example use an enzymatic sequence of the cholesterol-esterase/cholesteroloxydase/chromogenic peroxidase type. In summary, the total esterified cholesterol is transformed into free cholesterol and fatty acid by the action of cholesterol esterase. The non-esterified cholesterol is subsequently measured by the formation of quinoeimine in the presence of cholesterol oxidase and peroxidise. The intensity of the quinoneimine coloration is proportional to the quantity of cholesterol present in the sample.

[6] = THP-1, cells expressing the scavenger CD36, lipoproteins marked with cyanine 3, read-out: Inhibition of accumulation of LDLox in (%)
[7] = THP-1 cells, 24 hours, read-out: Inhibition at 2.5 μM on THP-1 cells (24 hours)

Structure (SMILES)	inhibition at 2.5 µM (THP1 cells [1]; [6]) [%]	inhibition at 2.5 µM (THP1 cells [1]; [7]) [%]	further results
COc1cc(O)c(/C=N/NC(=O)C=Cc2ccco2)c(OC)c1 (stereo in doubt) [CGP02-02, (2Z)-3-(2-furyl)-N′-[(1E)-(2-hydroxy-4,6-dimethoxyphenyl)methylene] acrylohydrazide]	64	64	Inhibition of formation of foamy cells (THP1 cells [2]): inhibition of formation of foamy cells
COc1cc(O)c(/C=N/NC(=O)c2ccc(C)s2)c(OC)c1 [CGP02-03, N′-[(1E)-(2-hydroxy-4,6-dimethoxyphenyl)methylene]-5-methylthiophene-2-carbohydrazide]	82	82	Inhibition of formation of foamy cells (THP1 cells [2]): inhibition of formation of foamy cells
COc1cc(O)c(/C=N/NC(=O)c2ccc(N(C)C)cc2)c(OC)c1 [CGP02-04]	61	61	
COc1cc(O)c(/C=N/NC(=O)c2ccccc2CCc2ccccc2)c(OC)c1 [CGP02-05, 2-phenethylbenzoic acid (2-hydroxy-4,6-dimethoxy-benzylidene)-hydrazide]	77	77	
CCC(=O)Nc1cccc(C(=O)N/N=C/c2c(O)cc(OC)cc2OC)c1 [CGP02-06]	71	71	
COc1cc(O)c(/C=N/NC(=O)c2ccco2)c(OC)c1 [CGP02-07, 2-furancarboxylic acid (2-hydroxy-4,6-dimethoxy-benzylidene)-hydrazide]	63	63	
COc1cc(O)c(/C=N/NC(=O)Cc2c[nH]c3ccccc23)c(OC)c1 [CGP02-08, (1H-indol-3-yl) acetic acid (2-hydroxy-4,6-dimethoxybenzylidene)-hydrazide]	58	58	
COc1cc(O)c(/C=N/NC(=O)CC2Sc3ccccc3NC2=O)c(OC)c1 (centres unmarked) [CGP02-10]	52	52	
COc1cc(O)c(/C=N/NC(=O)c2ccccc2Oc2ccccc2)c(OC)c1 [CGP02-11, 2-phenoxy-benzoic acid (2-hydroxy-4,6-dimethoxybenzylidene)-hydrazide]	44	44	
Cc1nn(-c2ccccc2)c(C)c1/C=N/NC(=O)c1ccc([N+](=O)[O-])o1 [CGP02-12]	43	43	
COc1cc(O)c(/C=N/NC(=O)c2c(F)cccc2F)c(OC)c1 [CGP02-13, 2,6-difluorobenzoic acid (2-hydroxy-4,6-dimethoxybenzylidene)-hydrazide]	68	68	
COc1cc(O)c(/C=N/NC(=O)c2ccc(C(F)(F)F)cc2)c(OC)c1 [CGP02-16, 4-trifluoromethylbenzoic acid (2-hydroxy-4,6-dimethoxy-benzylidene)-hydrazide]	77	77	
CCN(CC)c1ccc(/C=N/NC(=O)c2ccc(OC)c(OC)c2)c(O)c1 [CGP02-17, 3,4-dimethoxybenzoic acid (4-diethylamino-2-hydroxy-benzylidene)-hydrazide]	88	88	
O=C(N/N=C/c1cc(Br)cc(Br)c1O)c1cc2ccccc2s1 [CGP02-18, benzo[b]thiophene-2-carboxylic acid (3,5-dibromo-2-hydroxy-benzylidene)-hydrazide]	78	78	
CN(C)C(=N)N=C(N)N [Metformin, metformin hydrochloride, reference compound]			Variation (reduction) of insulin level (Wistar rats [3]): 16.2%; Plasma triglyceride level (Wistar rats [4]; 50 mg/kg, 3 weeks, control 1.39±0.13): 1.21 ± 0.08 g/L; Effect on plasma triglyceride level (Wistar rats [4]; same conditions): does not have any effect; Reduction in total cholesterol (Wistar rats [5]): 16%; Plasma total cholesterol level (Wistar rats [5]; control 0.79±0.05): 0.66 ± 0.02 g/L
